In patent US5872104A, “Combinations and methods for reducing antimicrobial resistance” (Oridigm Corporation, priority 1994, dated 1999):
Converted amounts (≈) assume the structure as drawn. Where two headings read alike, the source gives them in different places.

What was measured:
[1] = tested on: N- and O-methylation of mRNA; conditions: 100 μM; cited from earlier work
murine L929 SAHH = conditions: cited from earlier work
adenosine deaminase = conditions: cited from earlier work
viruses = conditions: cited from earlier work
[2] = sc., rats; cited from earlier work
[3] = tested on: porcine liver tRNA methyltransferase; conditions: cited from earlier work
Mycobacterium leprae = conditions: 12 μg/mouse every 12 hours, 15 doses, local; cited from earlier work
[4] = tested on: transfer and ribosomal RNA (tRNA and rRNA) methylases; conditions: cited from earlier work
[5] = dogs; cited from earlier work
methyl transfer from SAM = conditions: cited from earlier work
[6] = tested on: RNA methyltransferase from Streptomyces antibioticus; conditions: 100 μM; cited from earlier work
[7] = not told; cited from earlier work
poly(A)-RNA methylation = conditions: inhibitor level that still permitted cell growth; cited from earlier work
[8] = tested on: vaccinia virion mRNA(nucleoside-2'-)methyltransferase; conditions: cited from earlier work
[9] = tested on: nucleosidase enzymes responsible for SAH metabolism; conditions: cited from earlier work
tRNA methylases = conditions: cited from earlier work
[10] = tested on: S. aureus 27660 (erythromycin resistant); assay: Erythromycin disc susceptibility after pre-incubation with inhibitor discs (second procedure); conditions: 310 μg/disc, pre-incubation 0-5 hours, 18 hours incubation (FIG. 4)
[11] = tested on: S. aureus 27660 (erythromycin resistant); assay type: cell-based; conditions: for enhanced killing with erythromycin: in combination with erythromycin
[12] = tested on: S. aureus 6538 (erythromycin susceptible); assay: Erythromycin disk susceptibility with inhibitor pre-mixed in agar; assay type: cell-based; conditions: inhibitor pre-mixed with BHIA or TSA, with erythromycin (FIG. 2)
SAH hydrolase = conditions: cited from earlier work
[13] = tested on: vesicular stomatitis virus; conditions: primary rabbit kidney cells; cited from earlier work
malarial growth = conditions: read-out: ED50 (the source's name); cited from earlier work
human retrovirus = conditions: cited from earlier work
vaccinia virus = conditions: cited from earlier work
[14] = tested on: vaccinia virion mRNA(guanine-7)methyltransferase; conditions: 100 μM; cited from earlier work
RNA methyltransferase = conditions: cited from earlier work
cell culture = conditions: cited from earlier work
[15] = tested on: cell transformation by Rous sarcoma virus; conditions: concentrations not toxic to normal cells; cited from earlier work
RNA methylation = conditions: cited from earlier work
[16] = tested on: SAM-dependent methylations; conditions: cited from earlier work
polyamine biosynthesis = conditions: cited from earlier work
human liver SAHH = conditions: cited from earlier work
hamster liver SAHH = conditions: cited from earlier work
Legionella pneumophila = conditions: in µg/mL; cited from earlier work
Moraxella catarrhalis = conditions: in µg/mL; cited from earlier work
Campylobacter species = conditions: in µg/mL; cited from earlier work
Viridans streptococci = conditions: cited from earlier work
Streptococcus bovis = conditions: cited from earlier work
Mycoplasma pneumoniae = conditions: in µg/mL; cited from earlier work
Chlamydia trachomatis = conditions: in µg/mL; cited from earlier work
Neisseria gonorrhoeae = conditions: in µg/mL; cited from earlier work
Bacteroides fragilis = conditions: anaerobes; in µg/mL; cited from earlier work
[17] = tested on: Gram-positive cocci (peptococcus, peptostreptococcus); conditions: anaerobes; cited from earlier work
[18] = tested on: Coagulase-negative staphylococci, methicillin resistant; conditions: cited from earlier work
Clostridium perfringens = conditions: anaerobes; in µg/mL; cited from earlier work
Haemophilus influenzae = conditions: in µg/mL; cited from earlier work
Pasteurella multocida = conditions: cited from earlier work
[19] = tested on: E. faecalis (Erythromycin susceptible); conditions: cited from earlier work
[20] = tested on: Streptococcus pyogenes (group A), erythromycin susceptible; conditions: cited from earlier work
Listeria monocytogenes = conditions: in µg/mL; cited from earlier work
[21] = tested on: Staphylococcus aureus, methicillin resistant; conditions: cited from earlier work
[22] = tested on: Staphylococcus aureus, methicillin susceptible; conditions: in µg/mL; cited from earlier work
Streptococcus pneumoniae = conditions: in µg/mL; cited from earlier work
[23] = tested on: E. faecalis (Erythromycin resistant); conditions: cited from earlier work
[24] = cited from earlier work
N. meningitidis = conditions: in µg/mL; cited from earlier work
Bordetella pertussis = conditions: in µg/mL; cited from earlier work
[25] = tested on: 28S rRNA, 18S rRNA and tRNA; conditions: NPA 10 μM; c^3 -NPA 10 μM; c^3 -Ari 100 μM; cited from earlier work
cytotoxicity = conditions: cited from earlier work
SAHH hydrolase = conditions: cited from earlier work

Molecule: Nc1nccc2c1ncn2[C@@H]1O[C@H](CO)[C@@H](O)[C@H]1O [3-deazaadenosine]
- inhibition of N- and O-methylation of mRNA [1]: 31-83%

Molecule: CC(O)C1=C[C@@H](n2cnc3c(N)ncnc32)[C@H](O)[C@@H]1O (stereo partly drawn) [6'-C-methylneplanocin A]
- SAHH inhibition (murine L929 SAHH): good inhibitor of murine L929 SAHH
- resistance to adenosine deaminase (adenosine deaminase): virtually resistant to adenosine deaminase
- antiviral potency and selectivity vs neplanocin A (viruses): surpassing neplanocin A both in antiviral potency and selectivity

Molecule: NC(=O)c1cccnc1 [Nicotinamide]
- LD50 [2]: 1680 mg/kg
- inhibition of tRNA methyltransferase [3]: inhibition of porcine liver tRNA methyltransferase activity

Molecule: polyinosinate
- multiplication of M. leprae (Mycobacterium leprae): inhibit multiplication of Mycobacterium leprae
- combination with adenine and adenosine [4]: particularly effective in combination with adenine and adenosine
- inhibition of tRNA and rRNA methylases [4]: inhibits transfer and ribosomal RNA (tRNA and rRNA) methylases
- inhibition by base ([4]; methylases of individual bases): inhibition of adenine methylases occurred to the greatest extent and guanine methylases to the least

Molecule: Nc1ncnc2c1ncn2[C@@H]1O[C@H](CSCC[C@H](N)C(=O)O)[C@@H](O)[C@H]1O [S-Adenosylhomocysteine, S-adenosylhomocysteine]
- uptake and excretion [5]: not taken up and excreted unchanged in urine
- inhibition (methyl transfer from SAM): effective inhibitors
- inhibition [6]: 97%

Molecule: Nc1ncnc2c1ccn2[C@@H]1O[C@H](CSCCC(N)C(=O)O)[C@@H](O)[C@H]1O (stereo partly drawn) [STH, S-Tubercidinylhomocysteine]
- membrane permeation [7]: able to permeate cell membranes
- inhibition of poly(A)-RNA methylation (poly(A)-RNA methylation): Inhibition of cytoplasmic methylation
- inhibition [8]: particularly potent inhibitor
- susceptibility to nucleosidase [9]: not susceptible to the nucleosidase enzymes
- inhibition of tRNA methylases relative to SAH (tRNA methylases): retains the inhibitory potency of SAH on tRNA methylases

Molecule: CCSCC[C@H](N)C(=O)O [Ethionine]
- increase in clear zones relative to erythromycin alone [10]: Increases in clear zones were observed
- increase in the size of the clear zone ([11]; inhibitor pre-mixed with BHIA or TSA, with erythromycin (FIG. 3)): increase in the size of the clear zone
- increase in the size of the clear zone [12]: increase in the size of the clear zone

Molecule: Nc1ncnc2c1ncn2[C@@H]1C=C(CO)[C@@H](O)[C@H]1O [NPA, neplanocin A]
- Ki (SAH hydrolase; De Clercq & Cools (1985)): 2 nM
- SAH hydrolase inhibition (SAH hydrolase): potent inhibitor of SAH hydrolase
- minimum inhibitor concentration (50% reduction of cytopathogenicity) [13]: 0.018 µg/mL
- IC50 (malarial growth): 3000 nM
- effective inhibitory concentration (human retrovirus): ~0.2 µg/mL
- inhibition of plaque formation (vaccinia virus; 0.5 μM): 84%
- inhibition of plaque formation (vaccinia virus; 1 μM): 95%
- toxicity to the host cells (vaccinia virus; 0.5 and 1 μM): little toxicity to the host cells

Molecule: CNc1ncnc2c1ncn2[C@@H]1O[C@H](CSCC[C@H](N)C(=O)O)[C@@H](O)[C@H]1O [S-(N^6 -methyladenosyl)-L-homocysteine]
- inhibition [14]: 85%
- potency relative to SAH (RNA methyltransferase): nearly as potent an RNA methyltransferase inhibitor as SAH

Molecule: Nc1ncnc2c1ncn2[C@@H]1C[C@H](O)[C@@H](O)[C@H]1O (relative stereo) [(±)-5-Noraristeromycin]
- times less cytotoxic (cell culture): 10 to 20 times
- SAH hydrolase inhibition (SAH hydrolase): inhibitors of SAHH

Molecule: CC(C)CSC[C@H]1O[C@@H](n2cnc3c(N)ncnc32)[C@H](O)[C@@H]1O [SIBA, 5'-deoxy-5'-S-isobutyl-adenosine]
- potency as inhibitor [15]: most potent
- inhibition [6]: 55%
- inhibition of RNA methylation (RNA methylation; 1 mM): ~ 65%
- inhibition of methylation in whole cells (RNA methylation): strongly inhibit methylation in whole cells
- methylation of eukaryotic mRNA (RNA methylation; especially that of the 5' cap): inhibits the methylation of eukaryotic mRNA

Molecule: CSC[C@H]1O[C@@H](n2cnc3c(N)ncnc32)[C@H](O)[C@@H]1O [Methylthioadenosine, 5'-Deoxy-5'-(methylthio)adenosine]
- inhibition of SAM-dependent methylations [16]: inhibitor of several SAM-dependent methylations
- inhibition of spermine and spermidine synthesis (polyamine biosynthesis): inhibitor of spermine and spermidine synthesis
- inhibition (methyl transfer from SAM): effective inhibitors
- enhanced killing with erythromycin [11]: enhanced the killing

Molecule: Nc1ncnc2c1ncn2[C@@H]1O[C@H](CO)[C@@H](O)[C@H]1Cl [CLA, 2'-deoxy-2'-chloroadenosine]
- inhibition (human liver SAHH): inhibitor
- inhibition (hamster liver SAHH): inhibitor

Molecule: CC[C@H]1OC(=O)[C@H](C)[C@@H](O[C@H]2C[C@@](C)(OC)[C@@H](O)[C@H](C)O2)[C@H](C)[C@@H](O[C@@H]2O[C@H](C)C[C@H](N(C)C)[C@H]2O)[C@](C)(O)C[C@@H](C)CN(C)[C@H](C)[C@@H](O)[C@]1(C)O [Azithromycin]
- MIC90 (Legionella pneumophila): 0.25-2.0
- MIC90 (Moraxella catarrhalis): 0.5
- MIC90 (Campylobacter species): 0.25
- MIC90 (Viridans streptococci): 16 µg/mL (≈ 21.4 µM)
- MIC90 (Streptococcus bovis): 0.25 µg/mL (≈ 0.334 µM)
- MIC90 (Mycoplasma pneumoniae): 0.001
- MIC90 (Chlamydia trachomatis): 0.12-0.25
- MIC90 (Neisseria gonorrhoeae): 0.15
- MIC90 (Bacteroides fragilis): 8.0
- MIC90 [17]: 2 µg/mL (≈ 2.67 µM)
- MIC90 [18]: > 128 µg/mL
- MIC90 (Clostridium perfringens): 1.0
- MIC90 (Haemophilus influenzae): 1.0
- MIC90 (Pasteurella multocida): 0.5 µg/mL (≈ 0.668 µM)
- MIC90 [19]: 8 µg/mL (≈ 10.7 µM)
- MIC90 [20]: 0.12 µg/mL (≈ 0.16 µM)
- MIC90 (Listeria monocytogenes): 4.0
- MIC90 [21]: > 128 µg/mL
- MIC90 [22]: 1.0
- MIC90 (Streptococcus pneumoniae): 0.12
- MIC90 [23]: > 64 µg/mL
- tissue half-life [24]: prolonged tissue half-life
- MIC90 (N. meningitidis): 0.12
- MIC90 (Bordetella pertussis): 0.12

Molecule: Nc1nccc2c1ncn2[C@@H]1C=C(CO)[C@@H](O)[C@H]1O [3-Deazaneplanocin A, 3-deazaneplanocin A]
- methylation of 28S rRNA, 18S rRNA and tRNA [25]: inhibit the methylation of 28S rRNA, 18S rRNA and tRNA
- cytotoxicity relative to neplanocin A (cytotoxicity): significantly less cytotoxic than neplanocin A
- enhanced killing with erythromycin [11]: enhanced the killing
- antiviral activity and cytotoxicity vs first generation (SAHH hydrolase): retained antiviral activity and considerably lower cytotoxicity than their parent first generation inhibitors
